≈ marks a conversion by molar mass, not a printed value.

For this data set the following is noted: buffer; pH 7.4; 200.0 µM.
`OCCN1CCN(c2cc(C(F)(F)F)nc3ccccc23)CC1`: the solubility (kinetic) (commonly solubility judged after dilution from a stock solution rather than from solid) is over 48.8 µg/mL. `Cc1ccc(C)c(OCC(=O)Nc2ccncc2)c1`: the solubility (kinetic) was 37 µg/mL (≈ 144 µM). Molecule `CCOC(=O)CN1C(=O)C(=O)N(Cc2ccccc2F)C1=O` displayed a kinetic solubility of over 46.2 µg/mL.

As for `COCCn1c(SCC(=O)c2ccccc2)nc2c(c1=O)SCC2`, the kinetic solubility is 42.5 µg/mL (≈ 117 µM). Then `COc1ccccc1OCCNC(=O)c1ccc2c(c1)CCC2`, with 42.2 µg/mL (≈ 136 µM); and `Cc1cc2cc(CNC(=O)Cc3ccc([N+](=O)[O-])cc3)ccc2n1C`, with 0.3 µg/mL (≈ 0.889 µM).

As to `Nc1cccc(S(=O)(=O)Nc2ccc(Br)cc2)c1`, the solubility (kinetic) is over 49.1 µg/mL. Then `O=C(CSc1ccccc1F)NCCCN1CCCC1=O`, with over 46.6 µg/mL. In the case of `Cc1nn(CC(=O)NCc2ccccc2)c(=O)c2cccn12`, the solubility (kinetic) is over 44.4 µg/mL. Molecule `C/C(=C\c1cccc(Cl)c1Cl)C(=O)c1c(C)cc(C)[nH]c1=O` showed a solubility (kinetic) of 3.5 µg/mL (≈ 10.4 µM). `COc1ccc(NS(=O)(=O)c2cccc(C(=O)O)c2)cc1S(=O)(=O)N1CCCCC1`: the solubility (kinetic) is over 68.2 µg/mL. The molecule `CCN(Cc1ccncc1)C(=S)Nc1ccc(Cl)cc1` registered a solubility (kinetic) of over 45.9 µg/mL.

`O=C(O)/C=C/C(=O)Nc1ccc(O)cc1` displayed a solubility (kinetic) of over 31.1 µg/mL. `CN(C)S(=O)(=O)c1cccc(COC(=O)c2cnccn2)c1` showed a kinetic solubility of 41.7 µg/mL (≈ 130 µM).

In turn, `COc1ccc(NC(=O)CN2CCN(c3ccccc3C)CC2)cc1` gave a solubility (kinetic) of 35.5 µg/mL (≈ 105 µM). `Cc1ccn2cc(-c3ccc(O)c(O)c3)nc2c1.Cl` yielded a kinetic solubility of 17.8 µg/mL. Then `Cc1cccc(-c2nc(Nc3ccc(O)cc3)c3ccccc3n2)c1`, with 5.8 µg/mL (≈ 17.7 µM). Molecule `O=C(NCc1ccccc1Cl)c1ccc2c(c1)OCO2` gave a kinetic solubility of over 43.5 µg/mL.

Take `O=C(Nc1ccccc1F)c1ccc2c(c1)OCO2`: the kinetic solubility is over 38.9 µg/mL. In turn, `O=C(CC1CCCCC1)NCc1ccc(Cl)cc1` returned a solubility (kinetic) of 2.4 µg/mL (≈ 9.03 µM). With `CN(C)CCOC(c1ccc(Cl)cc1)c1ccccn1.O=C(O)/C=C/C(=O)O` (centres undefined), the kinetic solubility is over 61 µg/mL.

For the molecule `COc1nc(C)nc(C)c1Oc1ccc(Cl)cc1Cl`, the kinetic solubility was 1.5 µg/mL (≈ 5.01 µM). Molecule `COc1ccc(N2C(=O)CSC2c2cccc(F)c2)cc1` (centres undefined) showed a kinetic solubility of 29.2 µg/mL (≈ 96.3 µM). For `Cl.O=C(O)CC1(CC(=O)N2CCN(CCO)CC2)CCCC1`, the kinetic solubility was over 50.2 µg/mL.

The molecule `CCS(=O)(=O)c1ccc2c(c1)NC(=O)C(CCO)O2` (centres undefined) had a solubility (kinetic) of 40.4 µg/mL (≈ 142 µM). As to `CCc1c(C(=O)Nc2ccccc2C(N)=O)csc1C`, the kinetic solubility worked out at 3.6 µg/mL (≈ 12.5 µM). Next, `O=C1CCC(=O)N1c1ccc(-c2nc3sc4c(c3c(=O)o2)CCC4)cc1`: 1 µg/mL (≈ 2.73 µM); `Cc1ccc(C(O)Cn2cc([N+](=O)[O-])nc2C)cc1` (centres undefined): over 39.2 µg/mL; `COc1ccc(Cl)cc1NC(=O)CN(C)C(=O)C1CC1`: over 44.5 µg/mL. `COCC(=O)OCC(=O)Nc1ccccc1-c1ccccc1` returned a solubility (kinetic) of over 44.9 µg/mL. In the case of `C=CCNC(=O)N1CCC(c2nc3ccccc3s2)CC1`, the solubility (kinetic) is over 45.2 µg/mL. Next, `C=CCNC(=S)Nc1ccc(N(C)C)cc1`: over 35.3 µg/mL; `Cc1ccc(Br)cc1S(=O)(=O)Nc1cccnc1`: over 49.1 µg/mL; `O=C(CCn1c(=O)oc2ccccc21)NCCC1=CCCCC1`: over 47.2 µg/mL.

Consider `Cc1cc(N/C=C(\C#N)S(=O)(=O)c2ccccc2Cl)nc(C)n1`, for which the kinetic solubility was determined as 39.5 µg/mL (≈ 113 µM). Next, `CCc1cc2c(=O)oc(-c3ccccc3F)nc2s1`: 0.7 µg/mL (≈ 2.54 µM); `Cc1cccc(C(=O)NCC(=O)N2CCN(c3ccccn3)CC2)c1`: over 50.8 µg/mL; `CN1CCCC(OC(=O)c2ccc(Cl)cc2)C1.Cl` (centres undefined): 41.5 µg/mL. Then `NS(=O)(=O)c1ccc(CNC(=S)NC2CCCC2)cc1`, with 46.9 µg/mL (≈ 150 µM); and `CCOc1ccc(CCNC(=O)C2(c3ccccc3)CC2)cc1OCC`, with over 53 µg/mL. Take `COc1ccc(CNc2ncccn2)cc1OC`: the kinetic solubility was over 36.8 µg/mL. Next, `CC(=O)c1cccc(NC(=O)CCC(=O)c2ccc(F)cc2)c1`: 3.8 µg/mL (≈ 12.1 µM). Then `Cc1ccc2nsnc2c1NC(=O)c1cncc(Br)c1`, with 16.3 µg/mL (≈ 46.7 µM).

`CC(C)C(=O)Nc1nc(-c2ccc([N+](=O)[O-])cc2)cs1` yielded a kinetic solubility of 2.6 µg/mL (≈ 8.92 µM).

In turn, `CCCc1c(C)nc(N2CCN(c3ccc(F)cc3)CC2)[nH]c1=O` came in with a solubility (kinetic) of 1.2 µg/mL (≈ 3.63 µM).

Regarding `Cl.O=C(O)C1CCN(Cc2cccnc2)CC1`, the kinetic solubility is over 38.5 µg/mL. Then `COC(=O)c1c(C)[nH]c(C(=O)NCc2ccco2)c1C`, with 35.3 µg/mL (≈ 128 µM); and `CCCCNC(=O)c1cc(S(=O)(=O)N2CCCCC2)oc1C`, with 24 µg/mL (≈ 73.1 µM); and `CNC(=O)COC(=O)/C=C/c1nc2ccccc2s1`, with over 41.4 µg/mL. Molecule `CCCNC(=O)COC(=O)/C(C#N)=C/c1cc(C)n(CCC)c1C` displayed a kinetic solubility of 1.6 µg/mL (≈ 4.83 µM). `CN(CC(=O)Nc1ccc2c(c1)OCO2)CC(=O)Nc1ccc(F)c(F)c1F`: the solubility (kinetic) was over 59.3 µg/mL. Next, `COc1ccc(CN2CC[C@@H](N3CCOCC3)[C@H](O)C2)cc1F`: 43.3 µg/mL (≈ 133 µM); `O=S(=O)(NC1CCCC1)c1cc(F)ccc1F`: over 39.2 µg/mL; `CCOc1ccc(N(C(=O)c2cc3ccccc3oc2=O)C2C=CS(=O)(=O)C2)cc1` (centres undefined): over 63.8 µg/mL. Regarding `CC(=O)NC(CC(=O)N1CCN(C(C)=O)CC1)c1ccccc1` (centres undefined), the kinetic solubility is over 47.6 µg/mL. Turning to `CCOC(=O)c1csc(NC(=O)c2cccs2)n1`, the solubility (kinetic) came to 28.9 µg/mL (≈ 102 µM). Turning to `O=C(NC1CCCC1)c1cc2c(=O)n3ccccc3nc2s1`, the solubility (kinetic) came out at 11.2 µg/mL (≈ 35.7 µM). `COc1ccc2nc(C)cc(SCC(=O)N3CCCCC3)c2c1` showed a solubility (kinetic) of over 49.6 µg/mL.

Molecule `COc1ccc(NC(=O)CNC(=O)c2cccs2)cc1Cl` yielded a kinetic solubility of 2.7 µg/mL (≈ 8.31 µM). Then `CC(=O)OC(C(=O)NC1CCCCC1)c1ccccc1Cl` (centres undefined), with 39.1 µg/mL (≈ 126 µM); and `CCSc1nsc(NC(=O)Nc2cccc(C(C)=O)c2)n1`, with 1.6 µg/mL (≈ 4.96 µM); and `O=c1cc(-c2ccc([N+](=O)[O-])cc2)c2cc3c(cc2[nH]1)OCCO3`, with 0.9 µg/mL (≈ 2.78 µM). Molecule `Cl.N=C(c1ccc([N+](=O)[O-])cc1)N1CCCCCC1` displayed a solubility (kinetic) of over 42.6 µg/mL. As to `CC1(C)C(=O)OC(c2ccc([N+](=O)[O-])cc2)C(C)(C)C1=O` (centres undefined), the solubility (kinetic) was found to be 2.5 µg/mL (≈ 8.58 µM). `CC(C)(C)NC(=O)c1ccccc1NC(=O)c1ccc2c(c1)OCO2` returned a solubility (kinetic) of 5.3 µg/mL (≈ 15.6 µM).

Regarding `CCOC(=O)C1CCN(CCC(=O)Nc2ccc(C)cc2)CC1`, the kinetic solubility was over 47.8 µg/mL.

Molecule `O=S(=O)(c1ccc(F)cc1)N1CCN(c2ccc(F)cc2)CC1` had a kinetic solubility of 0.5 µg/mL (≈ 1.48 µM).

In the case of `CCOc1ccc(OCc2ccc(C(=O)N3CCCCC3)o2)cc1`, the solubility (kinetic) is over 49.4 µg/mL.

In turn, `O=C(O)c1ccccc1C(=O)Nc1ccc(Oc2cccc(C(F)(F)F)c2)nc1` showed a solubility (kinetic) of 60.2 µg/mL (≈ 150 µM). Molecule `O=[N+]([O-])c1ccc(NC(=S)N2CCN(c3ccccn3)CC2)cc1` had a solubility (kinetic) of 1.4 µg/mL (≈ 4.08 µM). Next, `CCN(CC(=O)N1CCCC1)S(=O)(=O)c1ccc(OC)cc1`: 44.7 µg/mL (≈ 137 µM); `CCOc1ccc(Cc2onc3c2C(=O)CCC3)cc1OCC`: 45.4 µg/mL (≈ 144 µM). Then `Cn1c(CN2CCN(S(C)(=O)=O)CC2)nc2cc([N+](=O)[O-])ccc21`, with over 53 µg/mL; and `O=C(COC(=O)c1ccccc1O)Nc1ccc2ccccc2c1`, with 6.2 µg/mL (≈ 19.3 µM).

The values are drawn from PubChem BioAssay AID1996.
